Source: ChEMBL document CHEMBL1129116, “Synthesis of cephems bearing olefinic sulfoxide side chains as potential -lactamase inhibitors” (1996)
≈ marks a conversion by molar mass, not a printed value.

Legend:
Assay type in all cases: functional
[1] = system: Staphylococcus aureus; test: Antibacterial activity of compound was measured against Staphylococcus aureus (MR) CEF1198 organism
[2] = system: Staphylococcus aureus; test: Antibacterial activity of compound was measured against Staphylococcus aureus (MR) A20699 organism
[3] = system: Staphylococcus aureus; test: Antibacterial activity of compound was measured against Staphylococcus aureus A9537 organism
[4] = system: Escherichia coli; test: Antibacterial activity of compound was measured against Escherichia coli A15119 organism
[5] = system: Klebsiella pneumoniae; test: Antibacterial activity of compound was measured against Klebsiella pneumoniae A9432 organism

| SMILES | MIC [1] | MIC [2] | MIC [3] | MIC [4] | MIC [5] |
| --- | --- | --- | --- | --- | --- |
| COc1cccc(OC)c1C(=O)N[C@@H]1C(=O)N2[C@@H]1SC(C)(C)[C@@H]2C(=O)O [METHICILLIN] | 32 µg/mL (≈ 84.1 µM) | 32 µg/mL (≈ 84.1 µM) | 0.5 µg/mL (≈ 1.31 µM) | > 128 µg/mL | > 128 µg/mL |
| CS(=O)(=O)/C=C/C1=C(C(=O)O)N2C(=O)[C@@H](NC(=O)Cc3cccs3)[C@H]2SC1 | 0.5 µg/mL (≈ 1.17 µM) | 4 µg/mL (≈ 9.33 µM) | 0.06 µg/mL (≈ 0.14 µM) | 0.5 µg/mL (≈ 1.17 µM) | 0.5 µg/mL (≈ 1.17 µM) |

More lines, in order of falling MIC [2], values ahead:

| MIC [1] | MIC [2] | MIC [3] | MIC [4] | MIC [5] | SMILES |
| --- | --- | --- | --- | --- | --- |
|  | 64 µg/mL (≈ 123 µM) | 0.5 µg/mL (≈ 0.962 µM) | 64 µg/mL (≈ 123 µM) | 64 µg/mL (≈ 123 µM) | O=C(Cc1cccs1)N[C@@H]1C(=O)N2C(C(=O)O)=C(/C=C/[S+]([O-])c3ccc([N+](=O)[O-])cc3)CS[C@H]12 (some centres undefined) |
| 8 µg/mL (≈ 16.4 µM) | 16 µg/mL (≈ 32.7 µM) | 0.25 µg/mL (≈ 0.512 µM) | 4 µg/mL (≈ 8.19 µM) | 2 µg/mL (≈ 4.09 µM) | Cc1ccc([S+]([O-])/C=C/C2=C(C(=O)O)N3C(=O)[C@@H](NC(=O)Cc4cccs4)[C@H]3SC2)cc1 (some centres undefined) |
| 4 µg/mL (≈ 9.7 µM) | 16 µg/mL (≈ 38.8 µM) | 0.03 µg/mL (≈ 0.0727 µM) | 1 µg/mL (≈ 2.42 µM) | 0.5 µg/mL (≈ 1.21 µM) | C[S+]([O-])/C=C/C1=C(C(=O)O)N2C(=O)[C@@H](NC(=O)Cc3cccs3)[C@H]2SC1 (some centres undefined) |
